This series concerns CCRIS mutagenicity, Ames/micronucleus/aberration tests. As to the kind of experiment: CCRIS mutagenicity studies.
Setting [1] is: Test System: AMES SALMONELLA TYPHIMURIUM, Strain/Indicator: TA98, Metabolic Activation: NONE, Method: STANDARD PLATE.
Where [2] appears, read: Test System: AMES SALMONELLA TYPHIMURIUM, Strain/Indicator: TA98, Metabolic Activation: RAT, LIVER, S-9, AROCLOR 1254, Method: STANDARD PLATE.
The mark [3] stands for this setting: Test System: AMES SALMONELLA TYPHIMURIUM, Strain/Indicator: TA100, Metabolic Activation: NONE, Method: STANDARD PLATE.
Where [4] appears, read: Test System: AMES SALMONELLA TYPHIMURIUM, Strain/Indicator: TA100, Metabolic Activation: RAT, LIVER, S-9, AROCLOR 1254, Method: STANDARD PLATE.

Active and inactive are the calls of the source. How the calls were made is not given here.

As for `CN1CCC(CN2c3ccccc3Sc3ccccc32)C1` (configuration not stated), the mutagenic call was “inactive; negative” (End Point: IN VITRO CHROMOSOMAL ABERRATIONS, Test System: CHINESE HAMSTER OVARY CELLS, Metabolic Activation: NONE); “inactive; negative” (End Point: IN VITRO CHROMOSOMAL ABERRATIONS, Test System: CHINESE HAMSTER OVARY CELLS, Metabolic Activation: RAT, LIVER, S-9, AROCLOR 1254); “inactive; negative” (Test System: AMES SALMONELLA TYPHIMURIUM, Strain/Indicator: TA97, Metabolic Activation: HAMSTER, LIVER, S-9, AROCLOR 1254 (10 OR 30%), Method: PREINCUBATION); “inactive; negative” (Test System: AMES SALMONELLA TYPHIMURIUM, Strain/Indicator: TA97, Metabolic Activation: NONE, Method: PREINCUBATION); “inactive; negative” (Test System: AMES SALMONELLA TYPHIMURIUM, Strain/Indicator: TA97, Metabolic Activation: RAT, LIVER, S-9, AROCLOR 1254 (10 OR 30%), Method: PREINCUBATION); “inactive; negative” (Test System: AMES SALMONELLA TYPHIMURIUM, Strain/Indicator: TA98, Metabolic Activation: HAMSTER, LIVER, S-9, AROCLOR 1254 (10%), Method: PREINCUBATION). Moreover, the mutagenic call is, setting by setting: (Test System: AMES SALMONELLA TYPHIMURIUM, Strain/Indicator: TA98, Metabolic Activation: HAMSTER, LIVER, S-9, AROCLOR 1254 (30%), Method: PREINCUBATION) “inactive; negative”; (Test System: AMES SALMONELLA TYPHIMURIUM, Strain/Indicator: TA98, Metabolic Activation: NONE, Method: PREINCUBATION) “inactive; negative”; (Test System: AMES SALMONELLA TYPHIMURIUM, Strain/Indicator: TA98, Metabolic Activation: RAT, LIVER, S-9, AROCLOR 1254 (10%), Method: PREINCUBATION) “inactive; negative”; (Test System: AMES SALMONELLA TYPHIMURIUM, Strain/Indicator: TA98, Metabolic Activation: RAT, LIVER, S-9, AROCLOR 1254 (30%), Method: PREINCUBATION) “inactive; negative”; (Test System: AMES SALMONELLA TYPHIMURIUM, Strain/Indicator: TA100, Metabolic Activation: HAMSTER, LIVER, S-9, AROCLOR 1254 (10%), Method: PREINCUBATION) “inactive; negative”; (Test System: AMES SALMONELLA TYPHIMURIUM, Strain/Indicator: TA100, Metabolic Activation: HAMSTER, LIVER, S-9, AROCLOR 1254 (30%), Method: PREINCUBATION) “inactive; negative”. Further, the mutagenic call (Test System: AMES SALMONELLA TYPHIMURIUM, Strain/Indicator: TA100, Metabolic Activation: NONE, Method: PREINCUBATION) was “inactive; negative”; the mutagenic call (Test System: AMES SALMONELLA TYPHIMURIUM, Strain/Indicator: TA100, Metabolic Activation: RAT, LIVER, S-9, AROCLOR 1254 (10%), Method: PREINCUBATION) was “inactive; negative”; the mutagenic call (Test System: AMES SALMONELLA TYPHIMURIUM, Strain/Indicator: TA100, Metabolic Activation: RAT, LIVER, S-9, AROCLOR 1254 (30%), Method: PREINCUBATION) was “inactive; negative”; the mutagenic call (Test System: AMES SALMONELLA TYPHIMURIUM, Strain/Indicator: TA1535, Metabolic Activation: HAMSTER, LIVER, S-9, AROCLOR 1254 (10%), Method: PREINCUBATION) is “inactive; negative”; the mutagenic call (Test System: AMES SALMONELLA TYPHIMURIUM, Strain/Indicator: TA1535, Metabolic Activation: HAMSTER, LIVER, S-9, AROCLOR 1254 (30%), Method: PREINCUBATION) is “inactive; negative”; the mutagenic call (Test System: AMES SALMONELLA TYPHIMURIUM, Strain/Indicator: TA1535, Metabolic Activation: NONE, Method: PREINCUBATION) was “inactive; negative”. Further, the mutagenic call (Test System: AMES SALMONELLA TYPHIMURIUM, Strain/Indicator: TA1535, Metabolic Activation: RAT, LIVER, S-9, AROCLOR 1254 (10%), Method: PREINCUBATION) was “inactive; negative”; the mutagenic call (Test System: AMES SALMONELLA TYPHIMURIUM, Strain/Indicator: TA1535, Metabolic Activation: RAT, LIVER, S-9, AROCLOR 1254 (30%), Method: PREINCUBATION) was “inactive; negative”; the mutagenic call (Test System: AMES SALMONELLA TYPHIMURIUM, Strain/Indicator: TA1537, Metabolic Activation: HAMSTER, LIVER, S-9, AROCLOR 1254 (10%), Method: PREINCUBATION) was “inactive; negative”; the mutagenic call (Test System: AMES SALMONELLA TYPHIMURIUM, Strain/Indicator: TA1537, Metabolic Activation: NONE, Method: PREINCUBATION) is “inactive; negative”; the mutagenic call (Test System: AMES SALMONELLA TYPHIMURIUM, Strain/Indicator: TA1537, Metabolic Activation: RAT, LIVER, S-9, AROCLOR 1254 (10%), Method: PREINCUBATION) was “inactive; negative”.
In the case of `CN1CCC(=C2c3ccccc3C=Cc3ccccc32)CC1`, the mutagenic call is, setting by setting: under setting [1], “inactive; negative”; under setting [2], “inactive; negative”; under setting [3], “inactive; negative”; under setting [4], “inactive; negative”; (Test System: AMES SALMONELLA TYPHIMURIUM, Strain/Indicator: TA1535, Metabolic Activation: NONE, Method: STANDARD PLATE) “inactive; negative”; (Test System: AMES SALMONELLA TYPHIMURIUM, Strain/Indicator: TA1535, Metabolic Activation: RAT, LIVER, S-9, AROCLOR 1254, Method: STANDARD PLATE) “inactive; negative”. In addition, the mutagenic call is “inactive; negative” (Test System: AMES SALMONELLA TYPHIMURIUM, Strain/Indicator: TA1537, Metabolic Activation: NONE, Method: STANDARD PLATE); “inactive; negative” (Test System: AMES SALMONELLA TYPHIMURIUM, Strain/Indicator: TA1537, Metabolic Activation: RAT, LIVER, S-9, AROCLOR 1254, Method: STANDARD PLATE); “inactive; negative” (Test System: AMES SALMONELLA TYPHIMURIUM, Strain/Indicator: TA1538, Metabolic Activation: NONE, Method: STANDARD PLATE); “inactive; negative” (Test System: AMES SALMONELLA TYPHIMURIUM, Strain/Indicator: TA1538, Metabolic Activation: RAT, LIVER, S-9, AROCLOR 1254, Method: STANDARD PLATE).
In the case of `Cc1cc2c3ccccc3ccc2c2ccccc12`, the mutagenic call reads like this: (Test System: AMES SALMONELLA TYPHIMURIUM, Strain/Indicator: TA98, Metabolic Activation: RAT, LIVER, CYTOSOL, AROCLOR 1254, Method: STANDARD PLATE) “inactive; negative”; (Test System: AMES SALMONELLA TYPHIMURIUM, Strain/Indicator: TA98, Metabolic Activation: RAT, LIVER, MICROSOMES, AROCLOR 1254, Method: STANDARD PLATE) “inactive; negative”; (Test System: AMES SALMONELLA TYPHIMURIUM, Strain/Indicator: TA100, Metabolic Activation: RAT, LIVER, MICROSOMES, 6-METHYLCHRYSENE, Method: STANDARD PLATE) “inactive; negative”; (Test System: AMES SALMONELLA TYPHIMURIUM, Strain/Indicator: TA100, Metabolic Activation: RAT, LIVER, MICROSOMES, AROCLOR 1254, Method: STANDARD PLATE) “inactive; negative”; (Test System: AMES SALMONELLA TYPHIMURIUM, Strain/Indicator: TA100, Metabolic Activation: RAT, LIVER, MICROSOMES, Method: STANDARD PLATE) “inactive; negative”.
As to `CCC(=O)Nc1ccc(Cl)c(Cl)c1`, the mutagenic call (Test System: AMES SALMONELLA TYPHIMURIUM, Strain/Indicator: TA97, Metabolic Activation: NONE, Method: STANDARD PLATE) is “inactive; negative”; the mutagenic call (Test System: AMES SALMONELLA TYPHIMURIUM, Strain/Indicator: TA97, Metabolic Activation: RAT, LIVER, S-9, AROCLOR 1254, Method: STANDARD PLATE) was “inactive; negative”; the mutagenic call under setting [1] is “inactive; negative”; the mutagenic call under setting [2] was “inactive; negative”; the mutagenic call under setting [3] is “inactive; negative”; the mutagenic call under setting [4] is “inactive; negative”. Also, the mutagenic call by setting is: (Test System: AMES SALMONELLA TYPHIMURIUM, Strain/Indicator: TA104, Metabolic Activation: NONE, Method: STANDARD PLATE) “inactive; negative”; (Test System: AMES SALMONELLA TYPHIMURIUM, Strain/Indicator: TA104, Metabolic Activation: RAT, LIVER, S-9, AROCLOR 1254, Method: STANDARD PLATE) “inactive; negative”; (Test System: CHINESE HAMSTER OVARY, Strain/Indicator: CHO-K1-BH4 (HGPRT), Metabolic Activation: NONE) “inactive; negative”; (Test System: CHINESE HAMSTER OVARY, Strain/Indicator: CHO-K1-BH4 (HGPRT), Metabolic Activation: RAT, LIVER, S-9, AROCLOR 1254) “inactive; negative”.
In the case of `O=[N+]([O-])c1cc2[nH]c3ccc4c(O)cccc4c3c2c2ccccc12`, the mutagenic call reads like this: under setting [1], “active; positive”; (Test System: AMES SALMONELLA TYPHIMURIUM, Strain/Indicator: TA98, Metabolic Activation: RAT, LIVER, S-9, 3-METHYLCHOLANTHRENE, Method: STANDARD PLATE) “active; positive”; under setting [3], “active; positive”; (Test System: AMES SALMONELLA TYPHIMURIUM, Strain/Indicator: TA100, Metabolic Activation: RAT, LIVER, S-9, 3-METHYLCHOLANTHRENE, Method: STANDARD PLATE) “active; positive”.

Values taken from PubChem BioAssay AID1259407 (Chemical Carcinogenesis Research Information System (CCRIS), 2018).
